Converted amounts (≈) assume the structure as drawn.
Tests used:
[1] = test system: peptic ulcer induced by water immersion restraint stress; assay: Inhibitory action against the peptic ulcer induced by water immersion restraint stress; type: in vivo; settings: Rattus norvegicus; SD male rats, 32 mg/kg oral, water immersion restraint stress 23° C., 7 hours; read-out: Inhibitory action against stress peptic ulcer, Percent inhibition of p.u. formation
Method: (1) Inhibitory action against the peptic ulcer induced by water immersion restraint stress
(§1) SD male rats (weighing 200-300 g) were fasted for 24 hours before oral administration of a thiourea derivative of the invention at a dose of 32 mg/kg bodyweight. One hour later, the animal was put in a stress cage and loaded with water immersion restraint stress in a water bath at 23° C. Seven hours after loading with the stress, the rate was sacrificed with ether, and the stomach was excised and treated with formalin. Area (mm^2 ) of the lesions developed in the glandular stomach area was then measured. Results were expressed in sum of the lesions per animal which was referred to as peptic ulcer index.
(§2) It was confirmed that the thiourea derivatives of the invention not shown in the table also have a similar antiulcer activity.
Percent inhibition of the peptic ulcer formation (%) as shown in the table was calculated according to the following equation: [formula]

ethanol peptic ulcer = assay: Inhibitory action against ethanol peptic ulcer; type: in vivo; settings: Rattus norvegicus; SD male rats, 32 mg/kg oral, 1 hour before ethanol 0.5 ml/100 g; read-out: Inhibitory action against ethanol peptic ulcer, Percent inhibition of p.u. formation
Method: (2) Inhibitory action against ethanol peptic ulcer
as §1, with “ethanol” for “the animal”, “orally given” for “put”, “volume of 0.5 ml/100 g bodyweight. One hour after treating” for “stress cage and loaded”, “ethanol,” for “water immersion restraint stress in a water bath at 23° C. Seven hours after loading with”, “rat” for “stress, the rate”, “(mm^2)” for “(mm^2 )”
as §2
Percent inhibition of the peptic ulcer formation (%) as shown in the table was calculated according to the same equation as mentioned above.

Helicobacter pylori = assay: Antimicrobial activity against Helicobacter pylori (MIC); type: cell-based, Helicobacter pylori strain NCTC 11916; settings: NCTC11916, strain NCTC 11916, twofold dilution, 37° C., 3-5 days, O2 about 5%
Method: (3) Antimicrobial activity against Helicobacter pylori
Antimicrobial activity of the thiourea derivatives according to the invention against Helicobacter pylori (or Campylobacter pylori) was evaluated by employing strain NCTC 11916 as a Helicobacter test organism and determining MIC (minimum inhibitory concentration) for the strain with the thiourea derivative.
The Helicobacter pylori was pre-incubated in a plate medium for 3-5 days. The medium was prepared by dissolving 38 g of a Mueller-Hinton medium (manufactured by Difco) in an appropriate amount of distilled water, sterilizing the solution in an autoclave, adding to the solution 50 ml of a horse hemolysis solution (manufactured by Nippon Seibutu Zairyou Center: Horse defibrinized blood, hemolyzed by a lyophilization treatment) and 2 ml of Skirrow, a Campylobacter selective supplement (manufactured by OXOID) containing vancomycin (5 mg), trimethoprim (2.5 mg) and polymyxin B (1250 IU) per vial (2 ml), and further an appropriate amount of distilled water to a volume of 1L in total and expanding and solidifying the solution on a dish. These antibiotics were contained for inhibition of the growth of microorganism other than Helicobacter pylori. The Helicobacter pylori pre-incubated under slightly aerobic conditions (an O2 concentration of about 5%) at 37° C. for 3-5 days was suspended in a physiological saline solution in a concentration of approximately 10^8 organisms/ml. Approximately 10-20 μl of the suspension was inoculated on a medium for MIC measurement in cross streaks. […] The DMSO solution was formed by the twofold dilution method. As in the pre-incubation, the Helicobacter pylori was cultured under slightly aerobic conditions at 37° C. for 3-5 days. After completion of the culture, growth of the microoranisms on the streaks was visually determined. The minimum concentration of the thiourea derivative in which no growth was observed was taken as MIC.
It was confirmed that the thiourea derivatives of the invention not shown in the table also have a similar antimicrobial activity.

MIC (Helicobacter pylori) [µg/mL] | Structure (SMILES) | inhibition in vivo at 32 mg/kg [1] [%] | inhibition in vivo at 32 mg/kg (ethanol peptic ulcer) [%]
6.25 (≈ 12.5 µM) | COc1ccccc1NC(=S)NCCCC(=O)NCCCOc1cccc(CN2CCCCC2)c1 [Example 14, 1-[3-[N-[3-[3-(piperidinomethyl)phenoxy]propyl]-carbamoyl]propyl]-3-(O-methoxyphenyl)thiourea] | 91.2 | 94.3
6.25 (≈ 12.4 µM) | O=C(CCCNC(=S)Nc1ccc(Cl)cc1)NCCCOc1cccc(CN2CCCCC2)c1 [Example 4, 1-[3-[N-[3-[3-(piperidinomethyl)phenoxy]propyl]carbamoyl]propyl]-3-(p-chlorophenyl)thiourea] | 74.6 | 78.2
6.25 (≈ 12.2 µM) | COc1cccc(C)c1NC(=S)NCCCC(=O)NCCCOc1cccc(CN2CCCCC2)c1 [Example 19, 1-[3-[N-[3-[3-(piperidinomethyl)phenoxy]propyl]carbamoyl]propyl]-3-(2-methoxy-6-methylphenyl)thiourea] | 90.1 | 94.6
6.25 (≈ 13.2 µM) | O=C(CCCNC(=S)NCc1ccco1)NCCCOc1cccc(CN2CCCCC2)c1 [Example 26, 1-[3-[N-[3-[3-(piperidinomethyl)phenoxy]propyl]carbamoyl]propyl]-3-furfurylthiourea] | 74.4 | 90.3

From US5190961A, “Thiourea derivatives and antimicrobial agent and antulcer agent containing the same” (Terumo Kabushiki Kaisha, priority 1990, dated 1993)
